Measured values: US20120065179A1, “PRODRUG COMPRISING BETA-KETO CARBOXYLIC ACID, BETA-KETO CARBOXYLIC ACID SALT OR BETA-KETO CARBOXYLIC ACID ESTER FOR DRUG DELIVERY” (YKI, Ytemiska Institutet AB, priority 2009, published 2012)
Where “and” joins values, the source holds several entries; their conditions need not be identical. Equal entries are not always repeated. Where two headings read alike, the source gives them in different places. Marks after values point to notes of the source that are not given here.

Key:
[1] = Sustained release of Nabumetone from beta-keto sodium salt prodrug in phosphate buffer at blood pH and 37° C.; assay type: physicochemical; conditions: released from beta-keto salt prodrug, phosphate buffer pH about 7.4, 37° C.
Experimental: 20.91 mg of the product synthesised as described in Example 8 (however in this case not purified by the chromatographic step in Example 8) was mixed with 1 ml 0.5 M NaOH at room temperature, whereby a portion of the sample was dissolved. After 30 minutes the mixture was placed in an oven at 37° C., and 10 μl samples was taken at regular intervals, diluted with 1 ml mobile phase (as in Example 1), and analyzed by HPLC, using UV-detection at 240 nm. 3.0 hours after initiation of the saponification reaction, the precursor (retention time 4.6 min) could no longer be detected, and the precursor peak was replaced by a peak from the intermediary beta-keto salt prodrug (retention time 2.3 minutes). At this point in time, a solution of 9 ml H2O and 0.0762 g NaH2PO4 was added to the sample, in order to create a NaH2PO4/Na2HPO4 pH buffer by neutralization of the NaOH remaining in the sample. […] The sample was again placed in the oven at 37° C. and the decarboxylation of the beta-keto salt in solution, gradually giving the commercially available drug Nabumetone, was followed by HPLC by taking 100 μl samples at regular intervals and diluting them with 1 ml mobile phase (see Example 1 above) before injection on the HPLC. It can be seen from the data that Nabumetone was continuously released into the solution via the spontaneous, non-enzymatic decarboxylation of the dissolved prodrug sodium salt, over a period of more than 120 hours. The half-life of the prodrug was estimated to be about 70 hours in this medium and under the conditions used.

[2] = cited from earlier work
[3] = Storage stability of beta-keto calcium salt prodrug of Nabumetone (17 days at 60° C., HPLC); assay type: physicochemical
[4] = Aqueous solubility of sodium beta-keto salt prodrug of Nabumetone (Example 13b); assay type: physicochemical
Experimental: 12.1 mg of the of ethyl-5-(6-methoxy-2-naphthyl)-beta-keto-pentanoate product prepared and purified as in Example 8 was mixed with 25 mL of a 0.5 M aqueous solution NaOH and homogenised on a vortex mixer. […] 15 minutes after preparation of the sample, the sample was transferred to an oil bath set at 37° C. with continuous gentle magnetic stirring, and kept there for 3.5 hours. Crystalline flakes remained in the sample at the end of the 3.5 hours heat-treatment, and the sample was thereafter centrifuged and the clear liquid above the sedimented crystals was analysed by HPLC as described above.
After storage around one hour at room temperature a fraction of the sample was then filtered twice through a 0.2 μm filter (Whatman, 0.2 μm PS) fitted to a syringe to give a clear solution. 200 μL of this filtered solution was transferred, in a tightly closed vessel, to an oil bath at 95° C. and kept at this temperature for about 5 hours to bring about quantitative decarboxylation of the labile, dissolved beta-keto carboxylic salt prodrug derivative of Nabumetone.
The heated sample was then mixed with 35 mL of mobile phase (see Example 1) whereby a few solid crystals (comprising Nabumetone) was seen to not dissolve. In order to assure a correct sampling for HPLC analysis, 5 mL of the 35 mL sample was filtered through a 0.2 μm filter, after the whole 35 mL sample had been pH adjusted to 4.21 by 300 μL 0.1 M HCl+100 μL 1 M HCl, to assure that the pH of the sample was close to the pH of the mobile phase itself (pH 4.30). The filtered solution was thereafter analysed by HPLC and found to contain 0.777 mg Nabumetone per liter. If recalculated to the corresponding concentration of nabumetone equivalents in the form of the beta-keto salt prodrug present in dissolved form in the filtered 200 μl sample that was subsequently heat-treated to form Nabumetone above, the obtained concentration corresponds to a Nabumetone concentration of 136.7 mg Nabumetone per liter in the clear aqueous solution, at room temperature, before the heat-treatment at 95° C.

[5] = In-vitro hydrolysis of Nabumetone beta-keto ester pro-prodrug and release of Nabumetone in model blood electrolyte solution at 37° C.; assay type: physicochemical; conditions: for Nabumetone formed in the solution: under-estimated, precipitating Nabumetone compromised sampling
[6] = Sustained release of acetophenone in vitro in model blood electrolyte solution at 37° C.; assay type: physicochemical; conditions: formed from sodium benzoyl acetate, model blood electrolyte solution pH 7.4
Experimental: A 0.2 M solution of ethyl benzoyl acetate (90%, Sigma Aldrich) in 0.5 M NaOH (aq) was prepared at room temperature and stirred for typically 5-24 hours, still at room temperature. After this time a major part of the ethyl benzoyl acetate had been transformed into dissolved sodium benzoyl acetate, as evidenced by monitoring the reaction by analysis of samples by reversed phase HPLC. Some acetophenone and remaining ethyl benzoyl acetate were typically present in the samples, but in minor amounts. The method employed a C8 column with an inner diameter of 150×4.6 mm and 5 micron particles. The mobile phase consisted of 400 ml deionized water+600 ml acetonitrile+0.196 g H3PO4 (85%)+2.760 g NaH2PO4*H2O. The flow rate was set to 1.0 mL/min and UV detection at 254 nm was employed for analysis of the compounds ethylbenzoylacetate (precursor), benzoylacetate (model prodrug) and acetophenone (model drug).
Ethyl benzoyl acetate was saponified according to the description in Example 1, and after 7 hours a solution containing about 0.2 M of the sodium salt of benzoyl acetate was obtained.

[7] = pig, 2 mM, pH 6.63

COc1ccc2cc(CCC(C)=O)ccc2c1 [Nabumetone, 4-(6-methoxy-2-naphthyl)-2-butanone]
Nabumetone (HPLC area @ 3.8 min) ([1]; 3.25 h after initiation of saponification): 0 | Nabumetone (HPLC area @ 3.8 min) ([1]; 5.1 h after initiation of saponification): 0 | Nabumetone (HPLC area @ 3.8 min) ([1]; 21.45 h after initiation of saponification): 5265 | Nabumetone (HPLC area @ 3.8 min) ([1]; 24.25 h after initiation of saponification): 5388 and 5496 | Nabumetone (HPLC area @ 3.8 min) ([1]; 28.15 h after initiation of saponification): 5804 | Nabumetone (HPLC area @ 3.8 min) ([1]; 45.4 h after initiation of saponification): 10083 | Nabumetone (HPLC area @ 3.8 min) ([1]; 50 h after initiation of saponification): 11400 | Nabumetone (HPLC area @ 3.8 min) ([1]; 78 h after initiation of saponification): 13359 | Nabumetone (HPLC area @ 3.8 min) ([1]; 117 h after initiation of saponification): 18156 | Nabumetone (HPLC area @ 3.8 min) ([1]; 194 h after initiation of saponification): 22484 | Solubility ([2]; water at 25° C., Sepassi et al, 2007): 4.7 µg/mL | Relative amount of calcium salt beta-keto prodrug/Nabumetone remaining after 17 days at 60° C. ([3]; 408 h): 45.3% | Obtained value (area units) ([3]; dry calcium salt after 17 days at 60° C., redissolved in water, HPLC): 1315 area units | Expected value if no breakdown occured during storage and a 100% yield was obtained upon precipitation with calcium chloride ([3]; recalculated for dilution): 90 area units | Nabumetone found in filtered solution by HPLC ([4]; 200 μL filtered prodrug solution decarboxylated at 95° C. for about 5 hours, mixed with 35 mL mobile phase): 0.777 mg Nabumetone per liter | Area at retention time 3.8 minutes characteristic for detection of Nabumetone ([4]; clear liquid after 3.5 h at 37° C. in 0.5 M NaOH, 200 μL diluted with 5.0 ml mobile phase): 59 arbitrary units | storage time after which sedimenting crystalline flakes of Nabumetone were detected in the sample ([5]; model blood solutes solution): 100 to 150 h | Nabumetone staying in a stabile dispersion (theoretical concentration) ([5]; model blood solutes solution with surface active beta-keto anion prodrug): 40 mg/L | Nabumetone formed in the solution ([5]; model blood solutes solution, Time 96.8 hours): (2656)* mg/L | Nabumetone formed in the solution ([5]; model blood solutes solution, Time 121.25 hours): (2715)* mg/L | Nabumetone formed in the solution ([5]; model blood solutes solution, Time 145.0 hours): (2423)* mg/L | Nabumetone formed in the solution ([5]; model blood solutes solution, Time 172.6 hours): (3508)* mg/L | Nabumetone formed in the solution ([5]; model blood solutes solution, Time 197.3 hours): (3240)* mg/L | Nabumetone formed in the solution ([5]; model blood solutes solution, Time 218.4 hours): (3859)* mg/L | Nabumetone formed in the solution ([5]; model blood solutes solution, Time 293.7 hours): (3013)* mg/L

CC(=O)c1ccccc1 [acetophenone]
Concentration of acetophenone (model drug) in sample ([6]; Time @ 37° C. 0.42): 160 µM | Concentration of acetophenone (model drug) in sample ([6]; Time @ 37° C. 2.25): 290 µM | Concentration of acetophenone (model drug) in sample ([6]; Time @ 37° C. 3.17): 380 µM | Concentration of acetophenone (model drug) in sample ([6]; Time @ 37° C. 4.17): 480 µM | Concentration of acetophenone (model drug) in sample ([6]; Time @ 37° C. 6.17): 400 µM | Concentration of acetophenone (model drug) in sample ([6]; Time @ 37° C. 8.25): 630 µM | Concentration of acetophenone (model drug) in sample ([6]; Time @ 37° C. 10.17): 730 µM | Concentration of acetophenone (model drug) in sample ([6]; Time @ 37° C. 12.17): 730 µM | Concentration of acetophenone (model drug) in sample ([6]; Time @ 37° C. 13.92): 900 µM | Concentration of acetophenone (model drug) in sample ([6]; Time @ 37° C. 17.92): 920 µM | Concentration of acetophenone (model drug) in sample ([6]; Time @ 37° C. 21.17): 1080 µM | Concentration of acetophenone (model drug) in sample ([6]; Time @ 37° C. 24.92): 950 µM | Concentration of acetophenone (model drug) in sample ([6]; Time @ 37° C. 31.33): 1110 µM | Concentration of acetophenone (model drug) in sample ([6]; Time @ 37° C. 48.75): 1550 µM | Concentration of acetophenone (model drug) in sample ([6]; Time @ 37° C. 76.33): 1890 µM | Solubility ([2]; tabulated solubility): 46 mM | Acetophenone concentration ([7]; 0.25 h): 0.09 mM | Acetophenone concentration ([7]; 1.33 h): 0.32 mM | Acetophenone concentration ([7]; 2.58 h): 0.50 mM | Acetophenone concentration ([7]; 4.75 h): 0.866 mM | Acetophenone concentration ([7]; 5.58 h): 0.866 mM | Acetophenone concentration ([7]; 6.58 h): 0.921 mM | Acetophenone concentration ([7]; 22.58 h): 1.34 mM | Acetophenone concentration ([7]; -0.17 h): 0.07 mM
